Data published in patent US8338565B2, “Macrocyclic compounds for inhibition of tumor necrosis factor alpha” (Ensemble Therapeutics Corporation, priority 2008, dated 2012).
Numbered stars: 1 amine (or outer) side, 2 acyl side, 3 side chain; on linkers, the order of the positions; unused ones are H or OH. Bridge positions count the residues as written; N and C are the ends. Square brackets hold non-standard residues; d marks the D form. Peptide text beside a SMILES is read from it. * marks the point of attachment. Phe(3,4-(OMe)2) = COc1ccc(C[C@H](N)C(=O)O)cc1OC; dPhe(4-CF3) = N[C@H](Cc1ccc(C(F)(F)F)cc1)C(=O)O; Phe(4-COOH) = N[C@@H](Cc1ccc(C(=O)O)cc1)C(=O)O; Bip = N[C@@H](Cc1ccc(-c2ccccc2)cc1)C(=O)O; Phe(4-NH2) = Nc1ccc(C[C@H](N)C(=O)O)cc1; d(hPhe) = N[C@H](CCc1ccccc1)C(=O)O; 4Pal = N[C@@H](Cc1ccncc1)C(=O)O; d4Pal = N[C@H](Cc1ccncc1)C(=O)O; Cha = N[C@@H](CC1CCCCC1)C(=O)O; d2Thi = N[C@H](Cc1cccs1)C(=O)O; Suc = O=C(CCC(=O)[*:2])[*:1]; Nicotinoyl = O=C(c1cccnc1)*; GABA = NCCCC(=O)O; βAla = NCCC(=O)O

molecular target: T1, TNFα / TNFα receptor (TNFα R1/Fc) (Homo sapiens, UniProt P01375); test: Inhibition of binding of TNFα to the TNFα receptor (plate ELISA competition); details: Activity (IC50, inhibition of TNFα binding to TNFα R1/Fc), Table 2
T1 construct: purchased R&D Systems
T1 sequence (P01375 77-233 limits assumed, species assumed): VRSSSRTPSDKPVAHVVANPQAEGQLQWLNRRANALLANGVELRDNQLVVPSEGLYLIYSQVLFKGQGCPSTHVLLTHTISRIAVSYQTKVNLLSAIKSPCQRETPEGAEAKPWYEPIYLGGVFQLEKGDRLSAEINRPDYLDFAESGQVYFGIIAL
Outline: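 Compound dilutions were preincubated 30 min at RT with 8.33 nM TNFα R1/Fc in PBST with 2% DMSO, then added to wells coated with 15 nM TNFα for 30 min. Bound receptor was detected with HRP anti-human Fc and TMB, read as A450.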

Row | SMILES | IC50 [µM]
1 | O=C1COc2ccc(cc2)C[C@@H](C(=O)NCc2nnn[nH]2)NC(=O)[C@H](Cc2ccccc2)NC(=O)[C@@H](Cc2ccc(-c3ccccc3)cc2)NC(=O)[C@H](Cc2cccs2)N1 [Compound 591] | < 10
2 | CN(C(=O)[C@@H]1Cc2ccc(cc2)OCC(=O)N[C@@H](Cc2cccs2)C(=O)N[C@H](Cc2ccc(-c3ccccc3)cc2)C(=O)N[C@@H](CCc2ccccc2)C(=O)N1)[C@@H](Cc1ccccc1)C(=O)O [Compound 621] | < 10

same assay, conditions: Table 2; read-out: Activity (IC50, inhibition of TNFα binding to TNFα R1/Fc)

Row | SMILES | IC50 [µM]
3 | O=C1COc2ccc(cc2)C[C@@H](C(=O)O)NC(=O)[C@H](Cc2ccc(-c3ccccn3)cc2)NC(=O)[C@@H](Cc2ccc(-c3ccccc3)cc2)NC(=O)[C@H](Cc2cccs2)N1 [Compound 632] | < 10
4 | O=C(Nc1ccc(-c2ccc(C[C@@H]3NC(=O)[C@@H](Cc4cccs4)NC(=O)[C@H](O)[C@@H](O)C(=O)Nc4ccc(cc4)C[C@@H](C(=O)O)NC(=O)[C@@H](Cc4ccccc4)NC3=O)cc2)cc1)OCc1ccccc1 [Compound 336] | 10 to 30
5 | O=C1CCC(=O)N[C@H](Cc2ccncc2)C(=O)N[C@@H](Cc2ccc(-c3ccccc3)cc2)C(=O)N[C@H](Cc2ccccc2)C(=O)N[C@H](C(=O)O)Cc2ccc(cc2)N1 [Compound 127] ([d4Pal][Bip][dF][Phe(4-NH2)]-OH; linker N-4 via Suc) | > 100
6 | O=C1CCC(=O)N[C@@H](CC2CCCCC2)C(=O)N[C@@H](Cc2ccc(-c3ccccc3)cc2)C(=O)N[C@H](CCc2ccccc2)C(=O)N[C@H](C(=O)O)Cc2ccc(cc2)N1 [Compound 191] ([Cha][Bip][d(hPhe)][Phe(4-NH2)]-OH; linker N-4 via Suc) | < 10
7 | O=C1COc2ccc(cc2)C[C@@H](C(=O)N[C@H](Cc2ccccc2)C(=O)O)NC(=O)[C@H](Cc2ccccc2)NC(=O)[C@@H](Cc2ccc(-c3ccccc3)cc2)NC(=O)[C@H](Cc2cccs2)N1 [Compound 227] | < 10
8 | O=C(O)CCCNC(=O)[C@H]1Cc2ccc(cc2)OCC(=O)N[C@@H](Cc2ccncc2)C(=O)N[C@H](Cc2ccc(-c3ccccc3)cc2)C(=O)N[C@@H](Cc2c[nH]c3ccccc23)C(=O)N1 [Compound 717] | 10 to 30
9 | O=C1COc2ccc(cc2)C[C@@H](C(=O)N[C@@H](Cc2ccc(O)cc2)C(=O)O)NC(=O)[C@H](CCc2ccccc2)NC(=O)[C@@H](Cc2ccc(-c3ccccc3)cc2)NC(=O)[C@H](Cc2ccc(-c3ccncc3)cc2)N1 [Compound 585] | < 10
10 | O=C1CCNC(=O)c2ccc(cc2)C[C@@H](C(=O)O)NC(=O)[C@H](Cc2ccccc2)NC(=O)[C@H](Cc2ccc(-c3ccccc3)cc2)NC(=O)[C@@H](CCc2ccccc2)N1 [Compound 464] ([βAla][d(hPhe)][Bip]F[Phe(4-COOH)]-OH; lactam N-5) | < 10
11 | O=C(O)[C@H](Cc1ccccc1)NC(=O)[C@@H]1Cc2ccc(cc2)NC(=O)[C@H](O)[C@@H](O)C(=O)N[C@@H](Cc2cccs2)C(=O)N[C@H](Cc2ccc(Br)cc2)C(=O)N[C@@H](CCc2ccccc2)C(=O)N1 [Compound 437] | 10 to 30
12 | O=C1CCC(=O)N[C@H](Cc2cccs2)C(=O)N[C@@H](CCCCNC(=O)c2cccnc2)C(=O)N[C@H](Cc2ccccc2)C(=O)N[C@H](C(=O)O)Cc2ccc(cc2)N1 [Compound 96] ([d2Thi]K(Nicotinoyl)[dF][Phe(4-NH2)]-OH; linker N-4 via Suc) | > 100
13 | O=C1COc2ccc(cc2)C[C@@H](C(=O)O)NC(=O)[C@H](Cc2ccccc2)NC(=O)[C@@H](Cc2ccc(-c3ccccc3)cc2)NC(=O)[C@H](Cc2ccncc2)N1 [Compound 646] | < 10
14 | O=C1COc2ccc(cc2)C[C@@H](C(=O)O)NC(=O)[C@@H]2CCCN2C(=O)[C@H](Cc2ccc(-c3ccccc3)cc2)NC(=O)[C@H](Cc2cccs2)N1 [Compound 255] | > 100
15 | O=C1COc2ccc(cc2)C[C@H](C(=O)O)NC(=O)[C@H](CCc2ccccc2)NC(=O)[C@@H](Cc2ccc(-c3ccccc3)cc2)NC(=O)[C@H](Cc2cccs2)N1 [Compound 673] | < 10
16 | O=C(O)CCCNC(=O)[C@@H]1Cc2ccc(cc2)NC(=O)CCC(=O)N[C@H](Cc2cccs2)C(=O)N[C@@H](Cc2ccc(-c3ccccc3)cc2)C(=O)N[C@H](CCc2ccccc2)C(=O)N1 [Compound 449] ([d2Thi][Bip][d(hPhe)][Phe(4-NH2)][GABA]-OH; linker N-4 via Suc) | > 100
17 | O=C1CCC(=O)N[C@H](Cc2cccs2)C(=O)N[C@@H](Cc2ccc(-c3ccccc3)cc2)C(=O)N[C@H](Cc2ccc(C(F)(F)F)cc2)C(=O)N[C@H](C(=O)O)Cc2ccc(cc2)N1 [Compound 79] ([d2Thi][Bip][dPhe(4-CF3)][Phe(4-NH2)]-OH; linker N-4 via Suc) | > 100
18 | O=C1COc2ccc(cc2)C[C@@H](C(=O)O)NC(=O)[C@H](Cc2ccccc2F)NC(=O)[C@@H](Cc2ccc(-c3ccccc3)cc2)NC(=O)[C@H](Cc2cccs2)N1 [Compound 625] | < 10
19 | O=C1CCC(=O)N[C@H](CCc2ccccc2)C(=O)NC(c2ccc(Br)cc2)C(=O)N[C@H](Cc2ccccc2)C(=O)N[C@H](C(=O)O)Cc2ccc(cc2)N1 (some centres unmarked) [Compound 183] | 10 to 30
20 | O=C1COc2ccc(cc2)C[C@@H](C(=O)O)NC(=O)[C@@H](CCc2ccccc2)NC(=O)[C@H](Cc2ccc(-c3ccccc3)cc2)NC(=O)[C@@H](Cc2cccs2)N1 [Compound 145] | 10 to 30

Row | SMILES | IC50 [µM]
21 | O=C1COc2ccc(cc2)C[C@@H](C(=O)O)NC(=O)[C@H](Cc2ccccc2)NC(=O)[C@@H](Cc2ccc(Br)cc2)NC(=O)[C@H](Cc2cccs2)N1 [Compound 399] | > 100
22 | O=C1CCC(=O)N[C@H](Cc2cccs2)C(=O)N[C@@H](Cc2ccc(-c3ccccc3)cc2)C(=O)N[C@@H](Cc2ccncc2)C(=O)N[C@H](C(=O)O)Cc2ccc(cc2)N1 [Compound 49] ([d2Thi][Bip][4Pal][Phe(4-NH2)]-OH; linker N-4 via Suc) | > 100
23 | O=C(NCS(=O)(=O)O)[C@@H]1Cc2ccc(cc2)NC(=O)[C@H](O)[C@@H](O)C(=O)N[C@H](Cc2cccs2)C(=O)N[C@@H](Cc2ccc(-c3ccccc3)cc2)C(=O)N[C@H](CCc2ccccc2)C(=O)N1 [Compound 593] | < 10
24 | O=C(O)[C@H](Cc1ccccc1)NC(=O)[C@H]1Cc2ccc(cc2)NC(=O)[C@H](O)[C@@H](O)C(=O)N[C@@H](Cc2cccs2)C(=O)N[C@H](Cc2ccc(Br)cc2)C(=O)N[C@@H](Cc2ccccc2)C(=O)N1 [Compound 438] | < 10
25 | O=C1COc2ccc(cc2)C[C@@H](C(=O)N[C@@H](Cc2ccccc2)C(=O)O)NC(=O)[C@H](Cc2ccccc2)NC(=O)[C@H](Cc2ccc(-c3ccccc3)cc2)NC(=O)[C@H](Cc2cccs2)N1 [Compound 229] | < 10
26 | O=C1COc2ccc(cc2)C[C@@H](C(=O)O)NC(=O)[C@@H](CCc2ccccc2)NC(=O)[C@H](Cc2ccc(-c3ccccc3)cc2)NC(=O)[C@@H](Cc2cccc(C(F)(F)F)c2)N1 [Compound 520] | < 10
27 | O=C(O)[C@@H]1Cc2ccc(cc2)NC(=O)[C@H](O)[C@@H](O)C(=O)N[C@H](Cc2ccccc2)C(=O)N[C@@H](Cc2ccc(-c3ccccc3)cc2)C(=O)N[C@H](CCc2ccccc2)C(=O)N1 [Compound 245] | 10 to 30
28 | CC(C)(C)Oc1ccc(C[C@@H]2NC(=O)[C@H](Cc3ccc(-c4ccccc4)cc3)NC(=O)[C@H](Cc3cccs3)NC(=O)COc3ccc(cc3)C[C@@H](C(=O)O)NC2=O)cc1 [Compound 347] | 30 to 100
29 | CC(=O)NCCCC[C@@H]1NC(=O)[C@H](Cc2ccc(-c3ccccc3)cc2)NC(=O)[C@H](Cc2cccs2)NC(=O)COc2ccc(cc2)C[C@@H](C(=O)O)NC1=O [Compound 256] | > 100
30 | N#Cc1ccc(C[C@H]2NC(=O)[C@H](O)[C@@H](O)C(=O)Nc3ccc(cc3)C[C@@H](C(=O)O)NC(=O)[C@@H](Cc3ccccc3)NC(=O)[C@H](Cc3ccc(-c4ccccc4)cc3)NC2=O)cc1 [Compound 260] | 30 to 100
31 | O=C(O)CCNC(=O)[C@@H]1Cc2ccc(cc2)C(=O)N[C@H](CCc2ccccc2)C(=O)N[C@@H](Cc2ccc(-c3ccccc3)cc2)C(=O)N[C@H](Cc2ccccc2)C(=O)N1 [Compound 424] ([d(hPhe)][Bip][dF][Phe(4-COOH)][βAla]-OH; lactam N-4) | < 10
32 | O=C1COc2ccc(cc2)C[C@@H](C(=O)O)NC(=O)[C@H](Cc2ccc(O)cc2)NC(=O)[C@@H](Cc2ccc(-c3ccccc3)cc2)NC(=O)[C@H](Cc2cccs2)N1 [Compound 427] | > 100
33 | C[C@H](NC(=O)[C@@H]1Cc2ccc(cc2)NC(=O)CCC(=O)N[C@H](Cc2ccccc2)C(=O)N[C@@H](Cc2ccc(-c3ccccc3)cc2)C(=O)N[C@H](CCc2ccccc2)C(=O)N1)C(=O)O [Compound 458] ([dF][Bip][d(hPhe)][Phe(4-NH2)]A-OH; linker N-4 via Suc) | > 100
34 | NC(=O)C[C@@H]1NC(=O)COc2ccc(cc2)C[C@@H](C(=O)O)NC(=O)[C@H](Cc2ccccc2)NC(=O)[C@@H](Cc2ccc(-c3ccccc3)cc2)NC1=O [Compound 488] | > 100
35 | O=C1COc2ccc(cc2)C[C@H](C(=O)O)NC(=O)[C@H](Cc2c[nH]c3ccccc23)NC(=O)[C@@H](Cc2ccc(-c3ccccc3)cc2)NC(=O)[C@H](Cc2c[nH]c3ccccc23)N1 [Compound 731] | 10 to 30
36 | CC(=O)NCCCC[C@@H]1NC(=O)COc2ccc(cc2)C[C@@H](C(=O)O)NC(=O)[C@H](Cc2ccccc2)NC(=O)[C@H](Cc2ccc(-c3ccccc3)cc2)NC1=O [Compound 490] | > 100
37 | O=C1COc2ccc(cc2)C[C@@H](C(=O)O)NC(=O)[C@@H](CCc2ccccc2)NC(=O)[C@H](Cc2ccc(Cl)cc2Cl)NC(=O)[C@@H](Cc2ccc(C(F)(F)F)cc2)N1 [Compound 148] | 30 to 100
38 | COc1ccc(C[C@@H]2NC(=O)[C@@H](Cc3cccs3)NC(=O)CCC(=O)Nc3ccc(cc3)C[C@@H](C(=O)O)NC(=O)[C@@H](Cc3ccccc3)NC2=O)cc1OC [Compound 93] ([d2Thi][Phe(3,4-(OMe)2)][dF][Phe(4-NH2)]-OH; linker N-4 via Suc) | > 100
